Test results as given in patent US12357680B2, “Inhibition of histone methyl transferases to treat cancer” (Albert-Ludwigs-Universitat Freiburg, priority 2018, dated 2025).

Assays:
NRMT2 = NRMT2 (Homo sapiens (Human), UniProt Q5VVY1); test: Methyltransferase panel, 10-dose IC50 mode; type: biochemical; conditions: Substrate: RCC1; 1 μM SAM; read-out: Control IC50*
Description: (§1) Compound 72b was further tested against a plurality of methyltransferases as described in the following. […] Reactions were carried out at 1 μM SAM. Curve fits were performed where the enzyme activities at the highest concentration of compounds were less than 65%. […] Compound 72b is referred to as KMI9542321 in the table below.

NRMT1 = NRMT1 (Homo sapiens (Human), UniProt Q9BV86); test: Methyltransferase panel, 10-dose IC50 mode; type: biochemical; conditions: Substrate: RCC1; 1 μM SAM; read-out: Control IC50*
Chain of NRMT1 (Q9BV86 whole entry): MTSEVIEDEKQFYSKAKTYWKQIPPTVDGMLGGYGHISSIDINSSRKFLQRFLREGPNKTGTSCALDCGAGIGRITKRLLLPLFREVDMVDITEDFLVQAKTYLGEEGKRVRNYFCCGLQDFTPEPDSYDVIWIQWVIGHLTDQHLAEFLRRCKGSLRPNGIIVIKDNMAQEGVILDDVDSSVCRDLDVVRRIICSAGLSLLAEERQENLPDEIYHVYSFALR
Description: as §1

SUV420H1TV2 = SUV420H1TV2 (Homo sapiens (Human), UniProt Q4FZB7); test: Methyltransferase panel, 10-dose IC50 mode; type: biochemical; conditions: Substrate: Nucleosomes; 1 μM SAM; read-out: Control IC50*
Chain of SUV420H1TV2 (Q4FZB7 other isoform, or with tags, fused parts or gaps): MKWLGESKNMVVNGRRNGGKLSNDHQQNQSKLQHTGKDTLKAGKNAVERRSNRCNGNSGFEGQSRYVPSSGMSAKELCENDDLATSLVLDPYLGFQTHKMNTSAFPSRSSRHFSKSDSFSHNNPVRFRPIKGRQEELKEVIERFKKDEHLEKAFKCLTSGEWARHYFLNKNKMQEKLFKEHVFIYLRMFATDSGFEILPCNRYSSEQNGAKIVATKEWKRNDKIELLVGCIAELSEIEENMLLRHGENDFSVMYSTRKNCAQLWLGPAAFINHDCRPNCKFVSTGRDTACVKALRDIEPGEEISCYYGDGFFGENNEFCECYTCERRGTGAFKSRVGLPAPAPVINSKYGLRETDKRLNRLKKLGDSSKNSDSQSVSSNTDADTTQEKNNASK
Description: as §1

PRMT3 = PRMT3 (Homo sapiens (Human), UniProt O60678); test: Methyltransferase panel, 10-dose IC50 mode; type: biochemical; conditions: Substrate: Histone H4; 1 μM SAM; read-out: Control IC50*
Chain of PRMT3 (O60678 whole entry, species assumed): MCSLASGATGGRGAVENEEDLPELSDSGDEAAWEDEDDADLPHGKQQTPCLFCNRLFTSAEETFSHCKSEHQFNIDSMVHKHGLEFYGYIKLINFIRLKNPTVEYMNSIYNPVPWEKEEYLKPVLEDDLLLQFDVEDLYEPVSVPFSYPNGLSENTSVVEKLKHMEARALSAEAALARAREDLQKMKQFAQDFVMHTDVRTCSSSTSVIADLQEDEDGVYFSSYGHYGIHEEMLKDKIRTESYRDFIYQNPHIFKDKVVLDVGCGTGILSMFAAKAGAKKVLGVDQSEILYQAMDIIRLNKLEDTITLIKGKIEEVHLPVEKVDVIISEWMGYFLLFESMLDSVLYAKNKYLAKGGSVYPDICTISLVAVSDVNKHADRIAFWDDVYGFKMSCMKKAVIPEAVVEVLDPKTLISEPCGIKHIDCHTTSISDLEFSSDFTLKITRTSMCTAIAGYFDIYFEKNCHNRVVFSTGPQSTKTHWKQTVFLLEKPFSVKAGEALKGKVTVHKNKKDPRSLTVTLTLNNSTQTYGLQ
Description: as §1

SETD2 = SETD2 (Homo sapiens (Human), UniProt Q9BYW2); test: Methyltransferase panel, 10-dose IC50 mode; type: biochemical; conditions: Substrate: Nucleosomes; 1 μM SAM; read-out: Control IC50*
Description: as §1

DNMT3b = DNMT3b (Homo sapiens (Human), UniProt Q9UBC3); test: Methyltransferase panel, 10-dose IC50 mode; type: biochemical; conditions: Substrate: Lambda DNA; 1 μM SAM; read-out: Control IC50*
Description: as §1

[1] = Methyltransferase panel, 10-dose IC50 mode; type: biochemical; conditions: Substrate: Core Histone; 1 μM SAM; read-out: Control IC50*
Description: as §1

SET1b Complex = SET1b Complex (Homo sapiens (Human), UniProt Q9UPS6); test: Methyltransferase panel, 10-dose IC50 mode; type: biochemical; conditions: Substrate: Core Histone; 1 μM SAM; read-out: Control IC50*
Description: as §1

GLP = GLP (Homo sapiens (Human), UniProt Q9H9B1); test: Methyltransferase panel, 10-dose IC50 mode; type: biochemical; conditions: Substrate: Histone H3 (1-21); 1 μM SAM; read-out: Control IC50*
Chain of GLP (Q9H9B1 whole entry): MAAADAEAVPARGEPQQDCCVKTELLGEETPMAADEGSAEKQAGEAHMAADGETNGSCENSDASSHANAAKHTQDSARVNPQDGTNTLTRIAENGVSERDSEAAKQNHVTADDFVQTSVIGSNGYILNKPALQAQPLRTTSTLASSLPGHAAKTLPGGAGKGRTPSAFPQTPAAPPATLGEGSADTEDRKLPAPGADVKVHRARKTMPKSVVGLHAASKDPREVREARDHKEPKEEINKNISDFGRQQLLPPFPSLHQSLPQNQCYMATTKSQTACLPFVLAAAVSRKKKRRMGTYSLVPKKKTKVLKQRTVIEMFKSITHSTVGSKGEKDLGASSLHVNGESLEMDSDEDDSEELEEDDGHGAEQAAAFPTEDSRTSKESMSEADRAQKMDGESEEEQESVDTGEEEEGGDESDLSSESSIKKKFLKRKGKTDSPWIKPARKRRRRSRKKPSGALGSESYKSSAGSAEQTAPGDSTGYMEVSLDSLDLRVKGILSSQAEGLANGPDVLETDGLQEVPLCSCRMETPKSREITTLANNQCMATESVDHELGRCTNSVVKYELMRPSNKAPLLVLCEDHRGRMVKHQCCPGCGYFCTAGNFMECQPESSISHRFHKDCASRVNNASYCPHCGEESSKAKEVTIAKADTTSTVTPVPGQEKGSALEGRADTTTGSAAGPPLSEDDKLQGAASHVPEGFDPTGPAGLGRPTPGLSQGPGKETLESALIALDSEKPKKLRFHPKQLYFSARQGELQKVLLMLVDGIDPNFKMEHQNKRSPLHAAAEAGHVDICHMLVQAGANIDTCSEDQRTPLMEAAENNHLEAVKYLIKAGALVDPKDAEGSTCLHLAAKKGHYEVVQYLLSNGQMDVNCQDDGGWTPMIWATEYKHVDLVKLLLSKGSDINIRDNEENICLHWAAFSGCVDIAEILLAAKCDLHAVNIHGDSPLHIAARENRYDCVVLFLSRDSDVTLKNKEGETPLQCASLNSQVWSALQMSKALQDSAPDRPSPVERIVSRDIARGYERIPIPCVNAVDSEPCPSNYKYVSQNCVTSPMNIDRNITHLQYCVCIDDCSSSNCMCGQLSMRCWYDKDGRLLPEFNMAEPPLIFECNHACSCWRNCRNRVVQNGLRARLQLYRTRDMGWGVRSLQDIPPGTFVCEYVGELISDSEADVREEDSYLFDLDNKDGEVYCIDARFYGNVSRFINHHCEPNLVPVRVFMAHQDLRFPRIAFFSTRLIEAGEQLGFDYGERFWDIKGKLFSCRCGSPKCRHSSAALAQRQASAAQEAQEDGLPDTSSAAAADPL
Description: as §1

PRMT6 = PRMT6 (Homo sapiens (Human), UniProt Q96LA8); test: Methyltransferase panel, 10-dose IC50 mode; type: biochemical
Chain of PRMT6 (Q96LA8 whole entry, species assumed): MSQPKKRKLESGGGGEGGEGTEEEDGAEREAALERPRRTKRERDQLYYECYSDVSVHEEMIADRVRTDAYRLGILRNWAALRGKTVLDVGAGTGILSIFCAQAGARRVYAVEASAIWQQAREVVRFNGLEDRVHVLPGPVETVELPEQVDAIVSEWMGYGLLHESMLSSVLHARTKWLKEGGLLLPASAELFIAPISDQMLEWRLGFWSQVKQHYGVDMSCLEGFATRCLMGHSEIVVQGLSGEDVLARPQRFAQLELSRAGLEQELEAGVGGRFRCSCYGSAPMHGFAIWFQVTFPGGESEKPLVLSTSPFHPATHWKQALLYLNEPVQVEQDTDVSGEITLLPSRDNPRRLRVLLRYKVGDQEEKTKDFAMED
Description: as §1

SET7/9 = SET7/9 (Homo sapiens (Human), UniProt Q8WTS6); test: Methyltransferase panel, 10-dose IC50 mode; type: biochemical; conditions: Substrate: Core Histone; 1 μM SAM; read-out: Control IC50*
Chain of SET7/9 (Q8WTS6 whole entry): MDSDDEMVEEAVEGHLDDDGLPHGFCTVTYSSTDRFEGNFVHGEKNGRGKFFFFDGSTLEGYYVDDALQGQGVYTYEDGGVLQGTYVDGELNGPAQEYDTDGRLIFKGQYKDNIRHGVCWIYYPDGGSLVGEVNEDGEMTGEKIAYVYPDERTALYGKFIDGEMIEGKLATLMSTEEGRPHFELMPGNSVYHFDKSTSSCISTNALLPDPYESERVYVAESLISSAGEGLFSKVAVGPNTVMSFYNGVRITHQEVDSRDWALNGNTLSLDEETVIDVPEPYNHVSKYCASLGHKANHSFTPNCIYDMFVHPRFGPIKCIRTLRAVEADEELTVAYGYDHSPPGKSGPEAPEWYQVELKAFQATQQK
Description: as §1

NSD1 = NSD1 (Homo sapiens (Human), UniProt Q96L73); test: Methyltransferase panel, 10-dose IC50 mode; type: biochemical; conditions: Substrate: Nucleosomes; 1 μM SAM; read-out: Control IC50*
Description: as §1

DNMT3b/3L = DNMT3b/3L (Homo sapiens (Human), UniProt Q9UBC3); test: Methyltransferase panel, 10-dose IC50 mode; type: biochemical; conditions: Substrate: Lambda DNA; 1 μM SAM; read-out: Control IC50*
Description: as §1

DNMT3a = DNMT3a (Homo sapiens (Human), UniProt Q9Y6K1); test: Methyltransferase panel, 10-dose IC50 mode; type: biochemical; conditions: Substrate: Lambda DNA; 1 μM SAM; read-out: Control IC50*
Chain of DNMT3a (Q9Y6K1 whole entry, looked up, species assumed): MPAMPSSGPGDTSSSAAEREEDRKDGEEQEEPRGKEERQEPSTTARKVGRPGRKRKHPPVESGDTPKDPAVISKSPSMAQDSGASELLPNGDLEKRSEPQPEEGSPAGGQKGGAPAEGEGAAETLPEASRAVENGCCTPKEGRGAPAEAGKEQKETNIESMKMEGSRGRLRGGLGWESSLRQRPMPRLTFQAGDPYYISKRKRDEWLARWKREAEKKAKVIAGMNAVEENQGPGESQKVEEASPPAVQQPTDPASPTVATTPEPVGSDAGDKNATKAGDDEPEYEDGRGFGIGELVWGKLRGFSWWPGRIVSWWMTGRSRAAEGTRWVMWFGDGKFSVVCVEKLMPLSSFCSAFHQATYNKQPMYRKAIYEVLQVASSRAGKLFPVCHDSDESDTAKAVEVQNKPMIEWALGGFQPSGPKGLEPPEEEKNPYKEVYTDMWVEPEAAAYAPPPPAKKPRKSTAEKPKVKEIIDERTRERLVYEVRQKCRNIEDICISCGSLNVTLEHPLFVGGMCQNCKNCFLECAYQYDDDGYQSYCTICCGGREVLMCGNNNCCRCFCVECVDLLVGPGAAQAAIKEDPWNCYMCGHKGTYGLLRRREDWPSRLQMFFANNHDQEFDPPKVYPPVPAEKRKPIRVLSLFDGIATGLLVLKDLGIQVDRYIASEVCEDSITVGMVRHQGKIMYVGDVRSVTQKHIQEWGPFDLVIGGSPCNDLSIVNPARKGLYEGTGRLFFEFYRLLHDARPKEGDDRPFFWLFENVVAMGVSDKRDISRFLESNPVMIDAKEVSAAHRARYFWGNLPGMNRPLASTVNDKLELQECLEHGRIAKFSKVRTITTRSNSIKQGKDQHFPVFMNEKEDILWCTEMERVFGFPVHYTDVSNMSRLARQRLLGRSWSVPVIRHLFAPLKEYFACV
Description: as §1

SUV39H2 = SUV39H2 (Homo sapiens (Human), UniProt Q9H5I1); test: Methyltransferase panel, 10-dose IC50 mode; type: biochemical; conditions: Substrate: Histone H3; 1 μM SAM; read-out: Control IC50*
Description: as §1

MLL3 Complex = MLL3 Complex (Homo sapiens (Human), UniProt Q8NEZ4); test: Methyltransferase panel, 10-dose IC50 mode; type: biochemical; conditions: Substrate: Core Histone; 1 μM SAM; read-out: Control IC50*
Description: as §1

SMYD3 = SMYD3 (Homo sapiens (Human), UniProt Q9H7B4); test: Methyltransferase panel, 10-dose IC50 mode; type: biochemical; conditions: Substrate: MEKK2; 1 μM SAM; read-out: Control IC50*
Chain of SMYD3 (Q9H7B4 whole entry): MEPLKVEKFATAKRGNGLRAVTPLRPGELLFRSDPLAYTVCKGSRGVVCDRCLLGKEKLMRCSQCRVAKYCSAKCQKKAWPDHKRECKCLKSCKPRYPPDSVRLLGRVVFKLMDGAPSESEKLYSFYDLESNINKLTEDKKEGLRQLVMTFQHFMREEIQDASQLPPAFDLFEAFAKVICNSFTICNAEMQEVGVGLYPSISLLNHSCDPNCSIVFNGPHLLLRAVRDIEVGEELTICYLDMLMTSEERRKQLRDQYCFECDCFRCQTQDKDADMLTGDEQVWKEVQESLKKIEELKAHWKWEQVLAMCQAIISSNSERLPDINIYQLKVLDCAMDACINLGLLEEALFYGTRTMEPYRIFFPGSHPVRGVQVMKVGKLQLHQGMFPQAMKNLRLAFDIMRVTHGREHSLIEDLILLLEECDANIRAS
Description: as §1

MLL1 Complex = MLL1 Complex (Homo sapiens (Human), UniProt Q03164); test: Methyltransferase panel, 10-dose IC50 mode; type: biochemical; conditions: Substrate: Nucleosomes; 1 μM SAM; read-out: Control IC50*
Description: as §1

KMT9 [2] = target: T1, KMT9 (Homo sapiens (Human), UniProt Q9Y5N5); test: Methyltransferase panel, 10-dose IC50 mode; type: biochemical; conditions: Substrate: Histone H4; 1 μM SAM; read-out: Compound IC50* (M) KMI9542321
T1 sequence (Q9Y5N5 whole entry): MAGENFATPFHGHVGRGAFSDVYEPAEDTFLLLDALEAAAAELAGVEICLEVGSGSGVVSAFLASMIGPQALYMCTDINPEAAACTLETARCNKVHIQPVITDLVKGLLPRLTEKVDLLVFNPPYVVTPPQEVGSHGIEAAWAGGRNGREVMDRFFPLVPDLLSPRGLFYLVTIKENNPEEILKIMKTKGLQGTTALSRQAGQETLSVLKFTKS
T1 sequence (Q9UI30 whole entry partner): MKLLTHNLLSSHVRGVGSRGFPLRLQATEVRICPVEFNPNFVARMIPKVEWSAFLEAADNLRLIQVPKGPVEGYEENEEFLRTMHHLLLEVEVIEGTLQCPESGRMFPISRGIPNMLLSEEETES
Description: as §1

[3] = test system: plurality of methyltransferases including DOT1L; test: Specificity across a plurality of methyltransferases; type: biochemical; conditions: 10-dose IC50 mode starting at 10 μM, 1 μM SAM
Description: as §1

KMT9 [4] = target: T1, KMT9; test: Thermal shift assay of KMT9 upon inhibitor binding; conditions: thermal shift at 500 μM
Description: For inhibitor testing, 1 μL of the compound, dissolved in DMSO at different concentrations, were added to a 96 well hard-shell PCR plate (Bio-Rad). Afterwards 4 μL of assay buffer (50 mM BTP, 1 mM MgCl2, 1 mM DTT, pH 8.5) were added, followed by 10 μL of 2×KMT9 (final concentration 2 μM) in assay buffer. After addition of 5 μL 4×SYPRO-Orange (Sigma) (final concentration 5×), the plate was spun for 1 min at 700 rpm, then shaken at 600 rpm for 15 minutes. After another […] spinning at 700 rpm for 1 min, measurement was performed using a CFX96 Touch Real-Time PCR Detection System (Bio-Rad). The plate was equilibrated at 20° C. for 4 minutes before heating gradually by 1° C. every 15 seconds until 95° C. After every step, the fluorescence was measured in FRET mode. The thermal shift at 500 μM is detected in K (Kelvin). For Example 9o, the thermal shift at 250 μM is detected in K (Kelvin). The obtained thermal shift obtained by adding the tested compound is shown in the table below as follows: shift ≤5 K is denoted with a “+”, shift >5 and ≤15 K is denoted with “++”, and shift >15 K is denoted with “+++”.

KMT9 [5] = target: T1, KMT9; test: Microscale thermophoresis (MST) KMT9-binding; conditions: His-tag labelled KMT9 20 nM; read-out: Binding affinity in MST
Description: To determine the binding affinity of the compound to KMT9, microscale thermophoresis (MST) analysis was performed with a NanoTemper Monolith NT.115 instrument (NanoTemper Technologies GmbH). KMT9 was labelled with a RED-Tris-NTA labelling kit (NanoTemper Technologies GmbH) based on the manufacturer's instructions. Buffer including 25 mM HEPES (pH 7.5), 100 mM NaCl, 1 mM DTT and 0.05% Tween was used for the reaction buffer. Varying concentrations of the compound were titrated against His-tag labelled KMT9 proteins (20 nM). Samples were loaded into standard Capillaries (NanoTemper Technologies GmbH) and MST measurements were performed using 40% MST power and 100% LED power. For each set of binding experiments, MST measurement was carried out with Binding Affinity module in MO. Control program under Nano-RED Excitation. Datasets were processed with the MO. Affinity Analysis software (NanoTemper Technologies GmbH).

KMT9 [6] = target: T1, KMT9; test: Methylation assay to test KMT9-inhibition ([3H]SAM, filter binding, scintillation); type: biochemical; conditions: ETF1 or histone H4 substrate
Description: Methylation assays were performed to test inhibition of the KMT9 methyltransferase activity by compound 72b. To test the compound, 1 μL of the compound, dissolved in DMSO at different concentrations, was added to a 0.5 ml tube (Brand Gmbh&Co KG). Afterwards, 4 μL of assay buffer (50 mM BTP, 1 mM MgCl2, 1 mM DTT, 0.01% TX-100, pH 8.5) were added together with 10 μL of 2× solution of KMT9 diluted in assay buffer (final concentration 0.025-0.6 μM). The solutions were mixed and incubated for 20 min at room temperature, shaking at 300 rpm. Afterwards, 5 μL of 4× Protein-SAM mix was added (final concentrations: 5 μM ETF1 or histone H4, SAM: 1-2.5 μM (including 30% of radioactively labelled [3H]SAM)) to a final assay volume of 20 μL. The reaction mixtures were mixed and incubated in an Eppendorf thermomixer comfort for 2 h at 30° C., shaking at 300 rpm. The reaction was quenched using 5 μL of 50% trichloroacetic acid (TCA) in water, mixed and incubated for 5 min at room temperature without shaking. […] The scintillation signal was measured for 3×1 min using Tri-Carb 2910 TR (PerkinElmer) scintillation counter in [^3H] […]

Question: For Nc1ncnc2c1ncn2[C@@H]1O[C@H](CSCC[C@H](N)C(=O)O)[C@@H](O)[C@H]1O [SAH, S-(5′-Adenosyl)-L-homocysteine], which IC50 (NRMT2) is on record?
Answer: 643 nM

Question: What about the IC50 (NRMT1) of the same compound?
Answer: 1070 nM

Question: And the IC50 (SUV420H1TV2)?
Answer: 139000 nM

Question: And the IC50 (PRMT3)?
Answer: 1880 nM

Question: And the IC50 (SETD2)?
Answer: 4080 nM

Question: What about the IC50 (DNMT3b) of the same compound?
Answer: 35.2 nM

Question: What about the IC50 [1] of the same compound?
Answer: 26400 nM

Question: And the IC50 (SET1b Complex)?
Answer: 5270 nM

Question: What about the IC50 (GLP) of the same compound?
Answer: 1210 nM

Question: What about the IC50 (PRMT6) of the same compound?
Answer: 199 nM

Question: What about the IC50 (SET7/9) of the same compound?
Answer: 281000 nM

Question: What about the IC50 (NSD1) of the same compound?
Answer: 4330 nM

Question: And the IC50 (DNMT3b/3L)?
Answer: 32.1 nM

Question: What about the IC50 (DNMT3a) of the same compound?
Answer: 329 nM

Question: What about the IC50 (SUV39H2) of the same compound?
Answer: 102000 nM

Question: What about the IC50 (MLL3 Complex) of the same compound?
Answer: 25400 nM

Question: And the IC50 (SMYD3)?
Answer: 12900 nM

Question: And the IC50 (MLL1 Complex)?
Answer: 1170 nM

Question: For CNc1ncnc2c1ccn2[C@@H]1C[C@H](CN(CCCNCCc2ccccc2)CC[C@H](N)C(=O)O)[C@@H](O)[C@H]1O [Compound 72b, (S)-2-amino-4-((((1R,2R,3S,4R)-2,3-dihydroxy-4-(4-(methylamino)-7H-pyrrolo[2,3-d]pyrimidin-7-yl)cyclopentyl)methyl)(3-(phenethylamino)propyl)amino)butanoic acid], which IC50 (KMT9 [2]) is on record?
Answer: 2e-07 M

Question: What about the “specificity for KMT9-inhibition versus other methyltransferases” value [3] of the same compound?
Answer: specific for KMT9-inhibition

Question: And the ΔTm at 500 µM (KMT9 [4])?
Answer: 5 to 15 °C

Question: What about the Kd (KMT9 [5]) of the same compound?
Answer: < 100 nM

Question: And the IC50 (KMT9 [6])?
Answer: < 100 nM
